According to patent publication US8956662B2, “Phenylephrine pharmaceutical formulations and compositions for colonic absorption” (MSD Consumer Care, Inc., priority 2006, dated 2015):
Structures can show the parent of a compound that is named as a salt. Where two headings read alike, the source gives them in different places.

Tests used:
[1] = oral dosage forms; cited from earlier work
[2] = Bioavailability of phenylephrine: plasma levels after delivery to the colon via Enterion capsules or oral Sudafed PE; format: in vivo, human; settings: for t1/2, unconjugated Phenylephrine / Tmax, unconjugated Phenylephrine: hydrochloride; for Tlag, unconjugated Phenylephrine / Tmax, unconjugated Phenylephrine: median (range); for AUC(0-t) / Cmax / bioavailability / concentration at 0.083 h / concentration at […] / concentration at 0.5 h / concentration at 1 h / concentration at 2 h / concentration at 3 h / concentration at 4 h / concentration at 6 h / concentration at 8 h / concentration at 12 h / concentration at 14 h / concentration at 16 h / concentration at 24 h: both sexes, human, plasma, oral; for Cmax: read-out: Cmax, unconjugated Phenylephrine; for bioavailability: read-out: Frel last (bioavailability relative to immediate release oral formulation), unconjugated Phenylephrine; for concentration at 0.083 h: 0.083 h post-dose; for concentration at 0.083 h / concentration at […] / concentration at 0.5 h / concentration at 1 h / concentration at 2 h / concentration at 3 h / concentration at 4 h / concentration at 6 h / concentration at 8 h / concentration at 12 h / concentration at 14 h / concentration at 16 h / concentration at 24 h: read-out: Mean plasma concentration (Unconjugated); for concentration at 0.5 h: 0.5 h post-dose; for concentration at 1 h: 1 h post-dose; for concentration at 2 h: 2 h post-dose; for concentration at 3 h: 3 h post-dose; for concentration at 4 h: 4 h post-dose; for concentration at 6 h: 6 h post-dose; for concentration at 8 h: 8 h post-dose; for concentration at 12 h: 12 h post-dose; for concentration at 14 h: 14 h post-dose; for concentration at 16 h: 16 h post-dose; for concentration at 24 h: 24 h post-dose
Description: The following study was conducted to examine the phenylephrine absorption behavior in GI tract. […] Enterion™ capsules (Pharmaceutical Profiles Ltd, UK) allow for deployment of drug delivery at a desired location within the GI tract. To determine the capsules had reached a desired location, preparations of regimens A and C were administered orally with 210 mL water followed by a radiolabeled drink containing 4 MBq 99m-Tc-diethylenetriaminepetaacetic acid (DTPA) in 30 mL water so that the location of the ingested materials could be visualized by scintigraphic imaging. […] The blood samples were collected into a tube containing lithium heparin, centrifuged within 30 minutes at 1500 g for 15 minutes at 4 degrees Celsius. The plasma was analyzed for phenylephrine in its conjugated and unconjugated forms. The amount of conjugated phenylephrine was calculated by subtracting the amount of unconjugated phenylephrine assayed from the amount of total phenylephrine assayed.
The relative bioavailability, shown as Frel last in the table, indicates the bioavailability of phenylephrine administered to the colon relative to that administered as an immediate release oral formulation.

[3] = conventional tablet formulation; cited from earlier work
[4] = 10 mg PE-colon (Regimen A) n = 8
[5] = 30 mg PE-colon (Regimen C) n = 6
[6] = 10 mg PE-colon (Regimen A) n = 8, mean ± SD
[7] = 10 mg to colon via Enterion capsule (Regimen A)
[8] = 30 mg PE-colon (Regimen C) n = 6, mean ± SD
[9] = 30 mg to colon via Enterion capsule (Regimen C)

CNC[C@H](O)c1cccc(O)c1 [Phenylephrine hydrochloride, phenylephrine hydrochloride]
half-life of active phenylephrine in plasma [1]: approximately 2 hours | t1/2, unconjugated Phenylephrine ([2]; 10 mg PE-colon (Regimen A) n = 2, mean): 8.19 (n = 2) hours | Tlag, unconjugated Phenylephrine [2, 4]: 0.0800 (0–0.750)a hours | Tmax, unconjugated Phenylephrine [2, 4]: 1.50 (0.250–3.00)a hours | active unconjugated form as share of total phenylephrine concentration over time in plasma (AUC0-∞ unconjugated / AUC0-∞ total) ([2]; 10 mg phenylephrine in immediate release form): ≤ 0.5% | active unconjugated form as share of total phenylephrine concentration over time in plasma (AUC0-∞ unconjugated / AUC0-∞ total) ([2]; 10 mg phenylephrine released in the colon): approximately 2.2% | t1/2, unconjugated Phenylephrine ([2]; 30 mg PE-colon (Regimen C) n = 3, mean ± SD): 10.8 ± 7.99 (n = 3) hours | Tlag, unconjugated Phenylephrine [2, 5]: 0 (0–0.750)a hours | Tmax, unconjugated Phenylephrine [2, 5]: 2.25 (0.750–6.03)a hours | active unconjugated form as share of total phenylephrine concentration over time in plasma (AUC0-∞ unconjugated / AUC0-∞ total) ([2]; 30 mg phenylephrine released in the colon): Approximately 5% | increase of bioavailability versus oral immediate release form ([2]; absorption from the lower intestinal tract): by a factor of three | AUC(0-t) ([2]; 10 mg, 10 mg PE-colon (Regimen A) n = 2, mean, read-out: AUC0–24, unconjugated Phenylephrine (Table 13)): 2.87 ng·h/mL | AUC(0-t) ([2]; 10 mg, 10 mg phenylephrine hydrochloride delivered to the colon, read-out: mean AUC0-24 value of unconjugated phenylephrine): 1.58 ± 0.915 ng·h/mL | AUC(0-t) ([2]; 30 mg, 30 mg PE-colon (Regimen C) n = 3, mean ± SD, read-out: AUC0–24, unconjugated Phenylephrine (Table 13)): 8.94 ± 5.16 ng·h/mL | AUC(0-t) ([2]; 30 mg, 30 mg phenylephrine hydrochloride delivered to the colon, read-out: mean AUC0-24 value of unconjugated phenylephrine): 5.17 ± 1.56 ng·h/mL | Cmax [2, 6]: 0.4 ± 0.454 ng/mL | bioavailability [2, 6]: 332 ± 232% | concentration at 0.083 h [2, 7]: 0.0586 ng/mL | concentration at […] ([2]; 10 mg to colon via Enterion capsule (Regimen A), 0.25 h post-dose): 0.304 ng/mL | concentration at 0.5 h [2, 7]: 0.145 ng/mL | concentration at […] ([2]; 10 mg to colon via Enterion capsule (Regimen A), 0.75 h post-dose): 0.125 ng/mL | concentration at 1 h [2, 7]: 0.135 ng/mL | concentration at […] ([2]; 10 mg to colon via Enterion capsule (Regimen A), 1.5 h post-dose): 0.16 ng/mL | concentration at 2 h [2, 7]: 0.187 ng/mL | concentration at […] ([2]; 10 mg to colon via Enterion capsule (Regimen A), 2.5 h post-dose): 0.182 ng/mL | concentration at 3 h [2, 7]: 0.165 ng/mL | concentration at 4 h [2, 7]: 0.15 ng/mL | concentration at 6 h [2, 7]: 0.111 ng/mL | concentration at 8 h [2, 7]: 0.068 ng/mL | concentration at 12 h [2, 7]: 0.058 ng/mL | concentration at 14 h [2, 7]: 0.059 ng/mL | concentration at 16 h [2, 7]: 0.064 ng/mL | concentration at 24 h [2, 7]: 0.059 ng/mL | Cmax [2, 8]: 0.468 ± 0.174 ng/mL | bioavailability [2, 8]: 333 ± 140% | concentration at 0.083 h [2, 9]: 0.0458 ng/mL | concentration at […] ([2]; 30 mg to colon via Enterion capsule (Regimen C), 0.25 h post-dose): 0.0784 ng/mL | concentration at 0.5 h [2, 9]: 0.229 ng/mL | concentration at […] ([2]; 30 mg to colon via Enterion capsule (Regimen C), 0.75 h post-dose): 0.242 ng/mL | concentration at 1 h [2, 9]: 0.253 ng/mL | concentration at […] ([2]; 30 mg to colon via Enterion capsule (Regimen C), 1.5 h post-dose): 0.348 ng/mL | concentration at 2 h [2, 9]: 0.354 ng/mL | concentration at […] ([2]; 30 mg to colon via Enterion capsule (Regimen C), 2.5 h post-dose): 0.352 ng/mL | concentration at 3 h [2, 9]: 0.324 ng/mL | concentration at 4 h [2, 9]: 0.309 ng/mL | concentration at 6 h [2, 9]: 0.311 ng/mL | concentration at 8 h [2, 9]: 0.269 ng/mL | concentration at 12 h [2, 9]: 0.195 ng/mL | concentration at 14 h [2, 9]: 0.204 ng/mL | concentration at 16 h [2, 9]: 0.196 ng/mL | concentration at 24 h [2, 9]: 0.157 ng/mL | maximal plasma concentration of unconjugated phenylephrine as percentage of maximal plasma concentration of total phenylephrine ([2]; immediate release formulation by oral administration): less than 0.7%

CCOC(=O)N1CCC(=C2c3ccc(Cl)cc3CCc3cccnc32)CC1 [loratadine]
time the antihistaminic effect lasts [3]: > 24 h
